Among the data in ChEMBL document CHEMBL5331098, “Nanomolar β-glucosidase and β-galactosidase inhibition by enantiomeric α-1-C-alkyl-1,4-dideoxy-1,4-imino-arabinitol derivatives” (Eur J Med Chem, 2023) are inhibition and IC50 values, retold here.

SMILES strings stand for the structures.

For assay [1], the species on record is Rattus norvegicus. The experiment in a line: Inhibition of rat intestinal maltase assessed as D-glucose release using maltose as substrate at pH 6.8 at 1000 uM by colorimetric method relative to control.
For assay [2], the species on record is Bos taurus. The assay can be described thus: Inhibition of bovine liver beta-glucuronidase assessed as reduction of p-nitrophenol release using p-nitrophenyl-glycoside as substrate at 1000 uM by spectrophotometric analysis relative to control.
A short description of assay [3]: Inhibition of almond beta-glucosidase assessed as reduction of p-nitrophenol release using p-nitrophenyl glycoside as substrate by spectrophotometric analysis. Further details: species or system Prunus dulcis.
Assay [4] concerns the target Beta-glucuronidase (Escherichia coli (strain K12), UniProt P05804). The assay can be described thus: Inhibition of Escherichia coli beta-glucuronidase assessed as reduction of p-nitrophenol release using p-nitrophenyl-glycoside as substrate by spectrophotometric analysis.
Assay [5] addresses Alpha-glucosidase (Saccharomyces cerevisiae S288c, UniProt P53341+P38158+P07265). The experiment in a line: Inhibition of yeast alpha-glucosidase assessed as reduction of p-nitrophenol release using p-nitrophenyl glycoside as substrate by spectrophotometric analysis. It is filed as protein assay.
Assay [6] in a line: Inhibition of bovine liver beta-galactosidase assessed as reduction of p-nitrophenol release using p-nitrophenyl glycoside as substrate by spectrophotometric analysis. On the set-up: species or system Bos taurus.
Assay [7] is filed under the species Sus scrofa. The assay can be described thus: Inhibition of porcine kidney alpha/alpha-trehalase assessed as reduction of p-nitrophenol release using p-nitrophenyl glycoside as substrate at 1000 uM by spectrophotometric analysis relative to control.
Assay [8] has as its target Alpha-galactosidase (Coffea arabica) (UniProt Q42656). The experiment in a line: Inhibition of coffee beans alpha-galactosidase assessed as reduction of p-nitrophenol release using p-nitrophenyl glycoside as substrate at 1000 uM by spectrophotometric analysis relative to control.
Assay [9] concerns Oryza sativa. The experiment in a line: Inhibition of rice alpha-glucosidase assessed as reduction of p-nitrophenol release using p-nitrophenyl glycoside as substrate at 1000 uM by spectrophotometric analysis relative to control.
The nature of assay [10]: Inhibition of Aspergillus niger amyloglucosidase assessed as reduction of p-nitrophenol release using p-nitrophenyl-glycoside as substrate by spectrophotometric analysis.
In assay [11] the target is T1, Tissue alpha-L-fucosidase (Bos taurus) (UniProt Q2KIM0).
T1 sequence (whole entry): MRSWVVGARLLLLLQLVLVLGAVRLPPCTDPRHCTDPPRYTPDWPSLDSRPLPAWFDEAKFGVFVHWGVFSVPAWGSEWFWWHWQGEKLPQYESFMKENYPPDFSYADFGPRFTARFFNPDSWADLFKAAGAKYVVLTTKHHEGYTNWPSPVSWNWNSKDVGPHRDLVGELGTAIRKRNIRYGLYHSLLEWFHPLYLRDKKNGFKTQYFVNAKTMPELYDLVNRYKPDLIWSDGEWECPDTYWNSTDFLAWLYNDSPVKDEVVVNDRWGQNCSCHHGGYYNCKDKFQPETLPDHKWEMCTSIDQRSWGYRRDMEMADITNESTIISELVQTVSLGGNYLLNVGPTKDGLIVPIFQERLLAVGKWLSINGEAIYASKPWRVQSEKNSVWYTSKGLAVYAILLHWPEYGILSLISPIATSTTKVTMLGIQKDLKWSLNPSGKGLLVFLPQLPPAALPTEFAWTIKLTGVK
The experiment in a line: Inhibition of bovine kidney alpha-L-fucosidase assessed as reduction of p-nitrophenol release using p-nitrophenyl glycoside as substrate at 1000 uM by spectrophotometric analysis relative to control.

Assay [12] has as its target T2, Alpha-mannosidase (Canavalia ensiformis) (UniProt C0HJB3).
T2 sequence (whole entry): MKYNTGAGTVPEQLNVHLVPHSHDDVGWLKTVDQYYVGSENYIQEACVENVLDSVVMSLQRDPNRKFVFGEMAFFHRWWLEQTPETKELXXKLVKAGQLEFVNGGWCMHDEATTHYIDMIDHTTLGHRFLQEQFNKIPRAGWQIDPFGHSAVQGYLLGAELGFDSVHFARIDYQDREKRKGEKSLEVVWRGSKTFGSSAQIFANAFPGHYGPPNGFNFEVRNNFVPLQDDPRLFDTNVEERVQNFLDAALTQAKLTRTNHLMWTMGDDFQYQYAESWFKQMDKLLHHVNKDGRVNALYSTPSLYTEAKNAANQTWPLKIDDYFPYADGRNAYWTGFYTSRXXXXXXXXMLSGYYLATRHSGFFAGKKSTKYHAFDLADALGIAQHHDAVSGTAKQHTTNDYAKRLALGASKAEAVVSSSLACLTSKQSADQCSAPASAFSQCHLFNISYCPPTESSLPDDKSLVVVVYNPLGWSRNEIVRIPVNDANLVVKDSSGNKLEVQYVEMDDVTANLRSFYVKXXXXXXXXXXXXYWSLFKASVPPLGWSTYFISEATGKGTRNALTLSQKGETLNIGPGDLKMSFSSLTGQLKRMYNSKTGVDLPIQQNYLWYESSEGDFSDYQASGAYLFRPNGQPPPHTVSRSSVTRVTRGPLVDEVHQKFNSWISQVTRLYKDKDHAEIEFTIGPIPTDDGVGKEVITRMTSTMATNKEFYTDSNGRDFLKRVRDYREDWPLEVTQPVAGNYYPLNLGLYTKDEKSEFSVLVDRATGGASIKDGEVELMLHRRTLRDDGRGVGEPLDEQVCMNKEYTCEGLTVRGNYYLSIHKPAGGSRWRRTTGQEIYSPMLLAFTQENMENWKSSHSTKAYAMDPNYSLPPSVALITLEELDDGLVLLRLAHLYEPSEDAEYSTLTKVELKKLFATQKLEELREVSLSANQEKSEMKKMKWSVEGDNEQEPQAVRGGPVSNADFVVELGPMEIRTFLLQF
The experiment in a line: Inhibition of jack bean alpha-mannosidase assessed as reduction of p-nitrophenol release using p-nitrophenyl glycoside as substrate at 1000 uM by spectrophotometric analysis relative to control.

The nature of assay [13]: Inhibition of bovine liver beta-glucosidase assessed as reduction of p-nitrophenol release using p-nitrophenyl glycoside as substrate by spectrophotometric analysis. On the set-up: species or system Bos taurus.
Assay [14] relates to Helix pomatia. The assay can be described thus: Inhibition of snail beta-mannosidase assessed as reduction of p-nitrophenol release using p-nitrophenyl glycoside as substrate at 1000 uM by spectrophotometric analysis relative to control.
Assay [15] deals with Penicillium decumbens. The experiment in a line: Inhibition of Penicillium decumbens alpha-L-rhamnosidase assessed as reduction of p-nitrophenol release using p-nitrophenyl-glycoside as substrate at 1000 uM by spectrophotometric analysis relative to control.
Assay [16] has as its system Aspergillus niger. The assay can be described thus: Inhibition of Aspergillus niger amyloglucosidase assessed as reduction of p-nitrophenol release using p-nitrophenyl-glycoside as substrate at 1000 uM by spectrophotometric analysis relative to control.
For assay [17], the target named is Alpha-glucosidase (Saccharomyces cerevisiae S288c) (UniProt P53341+P38158+P07265). The assay can be described thus: Inhibition of yeast alpha-glucosidase assessed as reduction of p-nitrophenol release using p-nitrophenyl glycoside as substrate at 1000 uM by spectrophotometric analysis relative to control. It is filed as protein assay.
The nature of assay [18]: Inhibition of human lysosomal beta-glucosidase assessed as reduction of p-nitrophenol release using p-nitrophenyl glycoside as substrate by spectrophotometric analysis.
Assay [19] is described as follows: Inhibition of rat intestinal maltase assessed as D-glucose release using maltose as substrate at pH 6.8 by colorimetric method.
Assay [20] in a line: Inhibition of rice alpha-glucosidase assessed as reduction of p-nitrophenol release using p-nitrophenyl glycoside as substrate by spectrophotometric analysis. On the set-up: species or system Oryza sativa.

Chain of Beta-glucuronidase (P05804 whole entry): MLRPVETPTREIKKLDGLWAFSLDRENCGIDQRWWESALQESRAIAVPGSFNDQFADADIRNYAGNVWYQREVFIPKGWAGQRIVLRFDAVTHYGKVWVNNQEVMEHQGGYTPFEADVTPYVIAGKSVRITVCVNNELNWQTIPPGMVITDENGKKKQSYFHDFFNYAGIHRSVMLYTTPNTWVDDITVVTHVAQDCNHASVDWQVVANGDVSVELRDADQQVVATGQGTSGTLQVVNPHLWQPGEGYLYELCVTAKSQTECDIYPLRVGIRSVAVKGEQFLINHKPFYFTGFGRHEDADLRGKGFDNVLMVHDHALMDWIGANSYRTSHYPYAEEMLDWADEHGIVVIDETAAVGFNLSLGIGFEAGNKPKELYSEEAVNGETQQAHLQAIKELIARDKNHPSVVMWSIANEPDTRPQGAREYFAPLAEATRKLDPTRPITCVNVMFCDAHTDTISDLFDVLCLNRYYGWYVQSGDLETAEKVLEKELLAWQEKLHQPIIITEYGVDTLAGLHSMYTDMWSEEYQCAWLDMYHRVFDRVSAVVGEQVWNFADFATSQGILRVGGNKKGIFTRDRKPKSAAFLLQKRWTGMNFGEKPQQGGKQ
Chain of Alpha-galactosidase (Coffea arabica) (Q42656 16-378 limits assumed): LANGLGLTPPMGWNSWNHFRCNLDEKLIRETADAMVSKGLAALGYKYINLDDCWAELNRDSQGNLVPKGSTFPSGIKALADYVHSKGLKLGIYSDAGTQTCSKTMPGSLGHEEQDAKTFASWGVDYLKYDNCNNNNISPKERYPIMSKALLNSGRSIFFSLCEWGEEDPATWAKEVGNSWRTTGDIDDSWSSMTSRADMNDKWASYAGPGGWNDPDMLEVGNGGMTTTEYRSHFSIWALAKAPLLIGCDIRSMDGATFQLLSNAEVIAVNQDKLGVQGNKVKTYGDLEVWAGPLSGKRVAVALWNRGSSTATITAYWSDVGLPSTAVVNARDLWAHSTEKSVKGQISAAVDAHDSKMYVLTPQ

Take `Cl.OC[C@H]1N[C@H](CCCCCCCc2ccc(F)cc2)[C@@H](O)[C@@H]1O`: the inhibition in assay [1] is 15.9%; in assay [2], 42.5%; in [7] it was 4%; in [8] it was 20.5%; in assay [9], 11.7%; in assay [11], 38.7%. In addition, the inhibition in assay [12] is 22.7%; in [14], 37.1%; in assay [15], 13%. Besides, the IC50 in assay [3] is 15.6 µM; in [4] it was 34.5 µM; in assay [5], 32.2 µM; in assay [6], 0.008 µM; in [10], 31.9 µM; in assay [13], 0.043 µM.

On to `OC[C@H]1N[C@H]([C@@H](O)CCCCCCc2ccccc2)[C@@H](O)[C@@H]1O`, for which the inhibition in [1] turned out to be 18.6%; in assay [2], 0%; in [16], 39.7%; in assay [7] it was 4.5%; in assay [8], 0%; in [9], 15.8%. Moreover, the inhibition was 14.1% in assay [17]; 0% in assay [11]; 0% in assay [12]; 37.6% in assay [14]; 3.5% in assay [15]. Also, the IC50 in [3] was determined as 0.62 µM; in assay [4] it was 43 µM; in assay [6] it was 0.042 µM; in assay [18] it was 7.6 µM; in [13], 0.13 µM.

For `Cl.OC[C@H]1N[C@H](CCCCCCCc2ccc(Cl)cc2)[C@@H](O)[C@@H]1O`, the IC50 came to 14 µM in assay [19]; 13 µM in assay [3]; 22 µM in assay [4]; 40 µM in assay [5]; 0.014 µM in assay [6]; 43 µM in assay [10]. Also, the IC50 came out at 6.7 µM in assay [18], 0.054 µM in assay [13] and 15 µM in assay [20]. Besides, the inhibition in assay [2] amounted to 6%; in [7], 7.7%; in assay [8] it was 2.6%; in assay [11], 0%; in assay [12], 0%; in [14], 34.9%. The inhibition in assay [15] turned out to be 11.2%.

Take `Cl.OC[C@H]1N[C@H](CCCCCCCc2cccc(F)c2)[C@@H](O)[C@@H]1O`: the inhibition in [1] worked out at 32.8%; in [2] it was 6.9%; in assay [7], 7.5%; in assay [8], 1.1%; in [9], 21.3%; in assay [11] it was 2.7%. The inhibition in assay [12] was found to be 3.1%; in assay [14], 36.6%; in assay [15], 10%. Further, the IC50 is 11.5 µM in [3]; 19.4 µM in [4]; 17.2 µM in [5]; 0.011 µM in assay [6]; 40.9 µM in assay [10]; 0.04 µM in assay [13].

Regarding `OC[C@H]1N[C@H]([C@@H](O)CCCCCCc2ccc(F)cc2)[C@@H](O)[C@@H]1O`, the inhibition in [1] is 23.9%; in [2], 0.3%; in assay [16] it was 46.4%; in assay [7] it was 7.5%; in assay [8] it was 0.6%; in assay [9], 21.3%. Further, the inhibition was 42.8% in assay [17]; 1.5% in assay [11]; 0% in [12]; 46.3% in [14]; 4% in assay [15]. In addition, the IC50 is 0.47 µM in [3]; 62 µM in assay [4]; 0.025 µM in assay [6]; 5.2 µM in assay [18]; 0.09 µM in assay [13].

In the case of `Cc1ccc(CCCCCCC[C@H]2N[C@H](CO)[C@@H](O)[C@@H]2O)cc1.Cl`, the inhibition in assay [1] was found to be 49.9%; in assay [2], 0%; in assay [7] it was 3.5%; in assay [8] it was 9.7%; in assay [9] it was 34.4%; in assay [11], 8.6%. Also, the inhibition in assay [12] is 3.5%; in assay [14], 37%; in assay [15] it was 14.5%. The IC50 in [3] was determined as 10 µM; in [4] it was 42 µM; in [5] it was 92 µM; in [6] it was 0.008 µM; in assay [10] it was 33 µM; in [18], 5.2 µM. Also, the IC50 in [13] was determined as 0.034 µM.

With `Cl.OC[C@H]1N[C@H]([C@@H](O)CCCCCCc2ccc(Cl)cc2)[C@@H](O)[C@@H]1O`, the inhibition in assay [1] came to 1.1%; in assay [2], 0%; in [16] it was 41.7%; in assay [7], 5.5%; in assay [8], 0%; in [9], 16.5%. Also, the inhibition in [11] was determined as 2.1%; in assay [12] it was 0%; in [14], 45.4%; in assay [15], 3.5%. For the same molecule, the IC50 was 1.2 µM in assay [3]; 13 µM in assay [4]; 59 µM in assay [5]; 0.024 µM in [6]; 6.1 µM in assay [18]; 0.07 µM in assay [13].

For the molecule `OC[C@H]1N[C@H]([C@@H](O)CCCCCCc2ccc(F)c(F)c2)[C@@H](O)[C@@H]1O`, the inhibition in assay [1] came to 15%; in assay [2], 1.6%; in assay [7] it was 0%; in [8], 0%; in assay [9] it was 18.4%; in assay [17], 25.2%. Further, the inhibition in assay [11] stood at 0.3%; in assay [12], 0%; in [14], 48.6%; in assay [15], 2.2%. The IC50 in assay [3] was found to be 1.5 µM; in [4], 25 µM; in assay [6] it was 0.026 µM; in [10], 59 µM; in [18] it was 3.8 µM; in assay [13], 0.09 µM.

A word on the inhibition: it is how much of the control response was suppressed. Broadly, the IC50 is the concentration that gives 50% inhibition.
